# Laboratory results taken from PubChem BioAssay AID651779 (The Scripps Research Institute Molecular Screening Center, 2012).
# Activity calls are given as the source filed them.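 Rule for the calls: active = cytotoxic to HEK293 cells with IC50 at or below 10 µM; inactive = IC50 above 10 µM.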
# Test system: HEK293 viability, CellTiter-Glo ATP luminescence
# Assay: HEK293 cell cytotoxicity, late-stage follow-up, cytotoxicity control for SRC3 inhibitor project, luminescence, dose response (AID 651779)
row,SMILES,IC50
1,O=C(CCl)N1N=C(c2ccco2)CC1c1ccco1 (stereo unspecified),5.77 µM
2,Cc1cccc(NC(=O)c2cc(Cl)ccc2[N+](=O)[O-])c1,> 35.9 µM (inactive)
3,CC(=O)N1CCN(c2ncnc3ccccc23)CC1,> 35.9 µM (inactive)
4,CCc1ccc(N=c2c([N+](=O)[O-])nn(-c3ccc4c(c3)OCCO4)n2O)cc1,> 35.9 µM (inactive)
5,Cc1nn(CC(=O)N2CCN(c3cccc(C(F)(F)F)c3)CC2)c(=O)c2cccn12,> 35.9 µM (inactive)
6,Cc1ccc(N=c2c([N+](=O)[O-])nn(-c3ccc4c(c3)OCCO4)n2O)cc1F,> 35.9 µM (inactive)
7,CC(C)N(c1ccccc1)c1ccc(NC(=O)CCl)cc1,0.441 µM
8,O=C(CCl)N1N=C(c2ccco2)CC1c1cccs1 (stereo unspecified),2.9 µM
9,O=C(O)CN1C(=O)/C(=C\c2ccccc2OCc2ccc(Cl)cc2Cl)SC1=S,> 35.9 µM (inactive)
10,Cc1c(/C(O)=C2/C(=O)C(=O)N(Cc3cccnc3)C2c2ccccn2)cnn1-c1ccccc1 (stereo unspecified),> 35.9 µM (inactive)
11,CCC(=O)N1CCN(c2ccnc3cc(Cl)ccc23)CC1,> 35.9 µM (inactive)
12,Cc1cc(N=c2c([N+](=O)[O-])nn(-c3ccc4c(c3)OCCO4)n2O)ccc1Br,> 35.9 µM (inactive)
13,COC(=O)c1c(C)n(-c2ccc(OC)cc2)c2ccc(O)cc12,> 35.9 µM (inactive)
14,O=C(NC(NC(=S)N1CCOCC1)C(Cl)(Cl)Cl)c1ccc(Cl)cc1 (stereo unspecified),> 35.9 µM (inactive)
15,Cc1ccc(N=c2c([N+](=O)[O-])nn(-c3ccc4c(c3)OCCO4)n2O)c(Cl)c1,> 35.9 µM (inactive)
16,CCOC(=O)C(=CNc1ccc(NC2=NCC(C)S2)cc1)C(=O)OCC (stereo unspecified),> 35.9 µM (inactive)
17,O=C(CCCc1nc(-c2ccccc2Cl)no1)NC1CCCC1,> 35.9 µM (inactive)
18,CN(C)c1ccc(CNC(=O)CCNS(=O)(=O)c2cc(Br)cnc2N)cc1,> 35.9 µM (inactive)
19,O=C1CCC2S/C(=C/Nc3ccc(C(F)(F)F)cc3)C(=O)N12 (stereo unspecified),> 35.9 µM (inactive)
20,O=[N+]([O-])c1cccc2c1ccc1ncccc12,> 35.9 µM (inactive)
21,COc1ccc(/C=C2/SC(=S)N(CCC(=O)O)C2=O)cc1,> 35.9 µM (inactive)
22,O=C(Nc1nc2ccccc2s1)C1c2ccccc2Oc2ccccc21,> 35.9 µM (inactive)
23,CCc1ccc(/C=C2\SC(=S)N(CCCC(=O)NCCCN3CCOCC3)C2=O)cc1,17.9 µM (inactive)
24,Cc1ccc(OCC(=O)c2cc(C)n(Cc3cccs3)c2C)c([N+](=O)[O-])n1,> 35.9 µM (inactive)
25,COc1cc(C2c3cc4c(cc3C(OC3OC5COC(c6cccs6)OC5C(O)C3O)C3COC(=O)C23)OCO4)cc(OC)c1O (stereo unspecified),24 µM (inactive)
26,S=C(Nc1ccccc1)Nc1ccc(OCc2ccc(Cl)cc2Cl)cc1,> 35.9 µM (inactive)

row,SMILES,IC50
1,c1ccc(-c2nnc(-c3ccccn3)nc2NC2CCCCC2)cc1,> 35.9 µM (inactive)
2,O=[N+]([O-])c1nn(-c2ccc3c(c2)OCCO3)n(O)c1=Nc1ccccc1,> 35.9 µM (inactive)
3,Cc1c(Cl)cccc1N=c1c([N+](=O)[O-])nn(-c2ccc3c(c2)OCCO3)n1O,> 35.9 µM (inactive)
4,Cc1ccc(/C=C2\SC(=S)N(CCCC(=O)NC3CCCC3)C2=O)cc1,> 35.9 µM (inactive)
5,Cc1cc(C)cc(N=c2c([N+](=O)[O-])nn(-c3ccc4c(c3)OCCO4)n2O)c1,> 35.9 µM (inactive)
6,COc1cc2c(cc1OC)C(NC(=O)C(F)(F)F)CNC2=O (stereo unspecified),9.84 µM
7,O=C(Nc1cccnc1)c1ccc(C(=O)Nc2cccnc2)cc1,> 35.9 µM (inactive)
8,O=C(Nc1nc(-c2ccccn2)cs1)c1cccc(S(=O)(=O)N2CCOCC2)c1,> 35.9 µM (inactive)
9,Cc1ccc(/C=C2/SC(=S)N(CCCC(=O)Nc3ccc(O)cc3)C2=O)cc1,> 35.9 µM (inactive)
10,NC(=O)c1sc2nc3c(c(-c4ccco4)c2c1N)CCC3,> 35.9 µM (inactive)
11,NC(=S)NN=C1CCSc2ccc(Cl)cc21,31.4 µM (inactive)
12,CC(=O)/C(N=Nc1ccc2c(c1)OCCO2)=C(/C)O,> 35.9 µM (inactive)
13,Cc1c(CC(=O)NCCCC(=O)O)c(=O)oc2cc3c(cc12)CCC(C)(C)O3,> 35.9 µM (inactive)
14,O=[N+]([O-])c1nn(-c2ccc3c(c2)OCCO3)n(O)c1=Nc1ccc(Cl)cc1,> 35.9 µM (inactive)
15,S=C(c1ccc(-c2ccccc2)cc1)N1CCOCC1,> 35.9 µM (inactive)
16,COc1cc(N=c2c([N+](=O)[O-])nn(-c3ccc4c(c3)OCCO4)n2O)cc(OC)c1,25.6 µM (inactive)
17,CC(C)n1c(SCC(=O)Nc2nc3c(s2)CCCC3)nc2c1c(=O)n(C)c(=O)n2C,33.6 µM (inactive)
18,Cn1nc(C(F)(F)F)c(C#N)c1N1CCN(c2ccc(F)cc2)CC1,28.3 µM (inactive)
19,O=C(CCl)NC(Cc1ccccc1)c1ccccc1 (stereo unspecified),22.3 µM (inactive)
20,NS(=O)(=O)c1ccc(Nc2nc(-c3cccnc3)cs2)cc1,> 35.9 µM (inactive)
21,CCOc1ccc(/C=C2\SC(=S)N(CCCC(=O)NCCCN3CCOCC3)C2=O)cc1,> 35.9 µM (inactive)
22,CCCCC(=O)Nc1cccn2ncnc12,> 35.9 µM (inactive)
23,O=C(COC(=O)c1ccc[nH]c1=O)Nc1ccc(N2CCCCC2)cc1,> 35.9 µM (inactive)
24,Cc1ccc(OCC(=O)c2cc(C)n(-c3ccccc3)c2C)c([N+](=O)[O-])n1,> 35.9 µM (inactive)
25,Cc1cc(/C=C2\Cc3ccccc3C2=O)c(C)n1-c1ccccc1,> 35.9 µM (inactive)
